Results reported in patent US20050239656A1, “Pyridine compounds or salts thereof and herbicides containing the same” (priority 2002, published 2005).

Columns and labels:
prickly sida [1] = test: Test Example 2: soil surface treatment, upland pot test; type: in vivo, Sida spinosa L.; conditions: active ingredient 500 g/ha, observed 20th to 28th day
Method in brief: (§1)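 Herbicidal effect is given as percent growth control, assessed by eye 20 to 28 days post-spray against untreated plants (0) and full kill (100). Treatment: soil-surface application one day after sowing, formulated product diluted in 1,500 L/ha water, upland soil, 1/170,000 ha pots.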

redroot pigweed [2] = test: as above; type: in vivo, Amaranthus retroflexus L.; conditions: active ingredient 500 g/ha, observed 20th to 28th day
Method in brief: as §1

soybean [3] = test: Test Example 1: foliage treatment, upland pot test; type: in vivo, Glycine max Merr.; conditions: crop, active ingredient 500 g/ha, observed 18th to 23rd day, 0 = non-treated, 100 = complete kill
Method in brief: (§2)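 Each plant species was sprayed once on its foliage, with wheat at 1.3–2.4, soybean at 0.1–0.4, barnyardgrass at 1.3–2.8 and rice at 1.2–2.6 leaves. Visual ratings of growth inhibition, 0 to 100%, followed 18–23 days later.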

rice [4] = test: Test Example 1: foliage treatment, upland pot test; type: in vivo, Oryza sativa L.; conditions: crop, active ingredient 500 g/ha, observed 18th to 23rd day, 0 = non-treated, 100 = complete kill
Method in brief: as §2

green foxtail [5] = test: Test Example 2: soil surface treatment, upland pot test; type: in vivo, Setaria viridis L.; conditions: active ingredient 500 g/ha, observed 20th to 28th day
Method in brief: as §1

rice (var. Nihonbare) = test: Test Example 3: paddy pot test, transplanted rice; type: in vivo, Oryza sativa L.; conditions: applied 4th day after transplantation, visually observed 21st day after application, 0 = non-treated, 100 = complete kill
Method in brief: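 Rice (2-leaf stage) was transplanted 3 cm deep into puddled, leveled paddy soil under 3–4 cm flooding. On day 4 after transplanting, diluted wettable powder or emulsifiable concentrate was pipetted onto the water at a predetermined active-ingredient dose. Growth control (0 = untreated, 100 = complete kill) was scored visually 21 days later.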

barnyardgrass [6] = test: Test Example 2: soil surface treatment, upland pot test; type: in vivo, Echinochloa crus-galli L.; conditions: active ingredient 500 g/ha, observed 20th to 28th day
Method in brief: as §1

corn [7] = test: Test Example 1: foliage treatment, upland pot test; type: in vivo, Zea mays L.; conditions: crop, active ingredient 500 g/ha, observed 18th to 23rd day, 0 = non-treated, 100 = complete kill
Method in brief: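 Corn seeds were sown in upland field soil held in a 1/170,000 ha pot and grown to the 2.1 to 3.2 leaf stage. A wettable powder or emulsifiable concentrate of the test compound was diluted with water at 500 L/ha, given 0.1% (v/v) agricultural spreader, and sprayed onto the foliage with a small sprayer. Growth controlling degree (%) was scored visually 18th to 23rd days later, from 0 (non-treated) to 100 (complete kill).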

japanese bulrush = test: Test Example 3: paddy pot test, application under submerged conditions; type: in vivo, Scirpus juncoides; conditions: submerged application at 0.5 leaf stage, visually observed 14 days after application, 0 = non-treated, 100 = complete kill
Method in brief: (§3)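 Seeds were sown in flooded paddy soil (0.5–1 cm water), wapato tubers were planted 1–2 days later, and water was then held at 3–4 cm. Diluted wettable powder or emulsifiable concentrate was pipetted into the water at the 0.5 leaf or primary leaf stage. Growth control was visually scored at 14 days (0–100%).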

corn [8] = test: Test Example 2: soil surface treatment, upland pot test; type: in vivo, Zea mays L.; conditions: active ingredient 500 g/ha, observed 20th to 28th day
Method in brief: as §1

velvetleaf [9] = test: as above; type: in vivo, Abutilon theophrasti MEDIC.; conditions: active ingredient 500 g/ha, observed 20th to 28th day
Method in brief: as §1

barnyardgrass [10] = test: Test Example 1: foliage treatment, upland pot test; type: in vivo, Echinochloa crus-galli L.; conditions: active ingredient 500 g/ha, observed 18th to 23rd day, 0 = non-treated, 100 = complete kill
Method in brief: as §2

crabgrass [11] = test: Test Example 2: soil surface treatment, upland pot test; type: in vivo, Digitaria sanguinalis L.; conditions: active ingredient 500 g/ha, observed 20th to 28th day
Method in brief: as §1

prickly sida [12] = test: Test Example 1: foliage treatment, upland pot test; type: in vivo, Sida spinosa L.; conditions: active ingredient 500 g/ha, observed 18th to 23rd day, 0 = non-treated, 100 = complete kill
crabgrass [13] = test: Test Example 1: foliage treatment, upland pot test; type: in vivo, Digitaria sanguinalis L.; conditions: active ingredient 500 g/ha, observed 18th to 23rd day, 0 = non-treated, 100 = complete kill
rice [14] = test: Test Example 2: soil surface treatment, upland pot test; type: in vivo, Oryza sativa L.; conditions: active ingredient 500 g/ha, observed 20th to 28th day
Method in brief: as §1

green foxtail [15] = test: Test Example 1: foliage treatment, upland pot test; type: in vivo, Setaria viridis L.; conditions: active ingredient 500 g/ha, observed 18th to 23rd day, 0 = non-treated, 100 = complete kill
japanese ribbon wapato = test: Test Example 3: paddy pot test, application under submerged conditions; type: in vivo, Sagittaria pygniaea; conditions: submerged application at primary leaf stage, visually observed 14 days after application, 0 = non-treated, 100 = complete kill
Method in brief: as §3

redroot pigweed [16] = test: Test Example 1: foliage treatment, upland pot test; type: in vivo, Amaranthus retroflexus L.; conditions: active ingredient 500 g/ha, observed 18th to 23rd day, 0 = non-treated, 100 = complete kill
barnyardgrass [17] = test: Test Example 3: paddy pot test, application under submerged conditions; type: in vivo, Echinochloa crus-galli L.; conditions: submerged application at 0.5 leaf stage, visually observed 14 days after application, 0 = non-treated, 100 = complete kill
Method in brief: as §3

soybean [18] = test: Test Example 2: soil surface treatment, upland pot test; type: in vivo, Glycine max Merr.; conditions: active ingredient 500 g/ha, observed 20th to 28th day
Method in brief: as §1

velvetleaf [19] = test: Test Example 1: foliage treatment, upland pot test; type: in vivo, Abutilon theophrasti MEDIC.; conditions: active ingredient 500 g/ha, observed 18th to 23rd day, 0 = non-treated, 100 = complete kill

| Structure (SMILES) | Growth controlling degree (%) Prickly sida (prickly sida [1]) | Growth controlling degree (%) Redroot pigweed (redroot pigweed [2]) | Growth controlling degree (%) Soybean (soybean [3]) | Growth controlling degree (%) Rice (rice [4]) | Growth controlling degree (%) Green foxtail (green foxtail [5]) | Growth controlling degree (%) Rice (rice (var. Nihonbare); active ingredient 250 g/ha) | Growth controlling degree (%) Barnyardgrass (barnyardgrass [6]) | Growth controlling degree (%) Corn (corn [7]) | Growth controlling degree (%) Japanese bulrush (japanese bulrush; active ingredient 250 g/ha) | Growth controlling degree (%) Corn (corn [8]) | Growth controlling degree (%) Velvetleaf (velvetleaf [9]) | Growth controlling degree (%) Barnyardgrass (barnyardgrass [10]) | Growth controlling degree (%) Crabgrass (crabgrass [11]) | Growth controlling degree (%) Prickly sida (prickly sida [12]) | Growth controlling degree (%) Crabgrass (crabgrass [13]) | Growth controlling degree (%) Rice (rice [14]) | Growth controlling degree (%) Green foxtail (green foxtail [15]) | Growth controlling degree (%) Redroot pigweed (redroot pigweed [16]) | Growth controlling degree (%) Soyabean (soybean [18]) | Growth controlling degree (%) Velvetleaf (velvetleaf [19]) | also measured |
| --- | --- | --- | --- | --- | --- | --- | --- | --- | --- | --- | --- | --- | --- | --- | --- | --- | --- | --- | --- | --- | --- |
| CC(C)C(c1cnccc1C(F)(F)F)N(C)C(=O)Cc1cccc(C(F)(F)F)c1 (stereo not shown) [I-40] | 100% | 90% | 60% | 50% | 100% | 0% | 95% | 90% | 50% | 50% | 70% | 40% | 100% | 80% | 95% | 20% | 70% | 80% | 30% | 90% | Growth controlling degree (%) Japanese ribbon wapato (japanese ribbon wapato; active ingredient 250 g/ha): 50%; Growth controlling degree (%) Barnyardgrass (barnyardgrass [17]; active ingredient 250 g/ha): 100% |
| CC(C)C(c1cnccc1C(F)(F)F)N(C)C(=O)COc1ccccc1 (stereo not shown) [I-229] | 100% | 98% | 50% | 30% | 100% | – | 100% | 10% | – | 100% | 50% | 60% | 100% | 80% | 80% | 50% | 70% | 80% | 10% | 90% | Growth controlling degree (%) Rice (rice (var. Nihonbare); active ingredient 500 g/ha): 0%; Growth controlling degree (%) Japanese bulrush (japanese bulrush; active ingredient 500 g/ha): 95%; Growth controlling degree (%) Japanese ribbon wapato (japanese ribbon wapato; active ingredient 500 g/ha): 90%; Growth controlling degree (%) Barnyardgrass (barnyardgrass [17]; active ingredient 500 g/ha): 100% |
| CC(C)C(c1cnccc1Cl)N(C)C(=O)Cc1cccc(F)c1 (stereo not shown) [I-65] | 10% | 50% | 20% | 20% | 60% | – | 60% | 0% | – | 30% | 10% | 10% | 90% | 80% | 60% | 20% | 10% | 90% | 0% | 70% | Growth controlling degree (%) Rice (rice (var. Nihonbare); active ingredient 125 g/ha): 0%; Growth controlling degree (%) Japanese bulrush (japanese bulrush; active ingredient 125 g/ha): 90%; Growth controlling degree (%) Japanese ribbon wapato (japanese ribbon wapato; active ingredient 125 g/ha): 60%; Growth controlling degree (%) Barnyardgrass (barnyardgrass [17]; active ingredient 125 g/ha): 98% |
| COc1ccc(CC(=O)N(C)C(c2cnccc2C(F)(F)F)C(C)C)cc1 (stereo not shown) [I-38] | 100% | 80% | 60% | 10% | 80% | 30% | 100% | 40% | 70% | 10% | 0% | 70% | 90% | 70% | 70% | 20% | 60% | 80% | 0% | 90% | Growth controlling degree (%) Japanese ribbon wapato (japanese ribbon wapato; active ingredient 250 g/ha): 85%; Growth controlling degree (%) Barnyardgrass (barnyardgrass [17]; active ingredient 250 g/ha): 100% |
